# Test system: human coronavirus M^Pro
# Test: Biochemical determination for human coronavirus M^pro assays
# Conditions: at 30 μM, control compound, 1% DMSO
# Protocol: The respective human coronavirus M^Pro in assay buffer (20 mM Tris-HCl, pH 7.3, 100 mM NaCl, 1 mM EDTA, 5 mM TCEP) and 0.1% BSA is added to assay-ready plates containing test compound (compound the present invention, Formula I). The enzymatic reaction is then immediately initiated with the addition of 5 μL substrate in assay buffer. Initial rates are measured by following the fluorescence of the cleaved substrate using a Spectramax (Molecular Devices) fluorescence plate reader in the kinetic format.
# Test compounds (compounds of the present invention, compounds of Formula I) are tested at final concentrations up to […] in 1% DMSO and compared to the broad-spectrum antiviral compound GC376 [Y. Kim, S. Lovell, et al, Broad-spectrum antivirals against 3C or 3C-like proteases of picornaviruses, noroviruses, and coronaviruses. J. Virol. […] The reaction is allowed to progress for 60 minutes at 23° C. after which the plate is read on a Molecular Devices Spectramax M2e reader at an Ex/Em of 340 nm/490 nm.
# Percent inhibition values are calculated based on control wells containing DMSO only (0% inhibition) and wells containing a control compound (100% inhibition). […] Percent activity values are calculated based on control wells containing no compound (100% activity) and wells containing the broad-spectrum antiviral compound GC376 (0% activity). […]
smiles,measurement,value
CC(C)C[C@H](NC(=O)OCc1ccccc1)C(=O)N[C@@H](C[C@@H]1CCNC1=O)C(O)S(=O)(=O)[O-].[Na+] (stereo partly shown) [GC376],inhibition,100%

# — patent US20250163026A1, “Deuterium-Enriched Nirmatrelvir as SARS-CoV-2 Mpro Inhibitor for the Treatment of COVID-19” (priority 2023, published 2025)
